In the supplement of paper PMC10307832:

Assays:
Assay in all cases: relative viability (nuclei count vs DMSO), 5 days (fraction); higher = more cells survive
[1] = test system: NCI-H441
How it was run: (§1)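 Nuclei were stained with Hoechst during a one-step fixation (final 0.05% Triton X-100, 1% formaldehyde, 1 ug/ml Hoechst) carried out 5 days after dosing, then counted on 4× images. The cells, lung cancer lines in 1536-well plates, had been dosed by pin tool the day after seeding with one drug alone or a fixed anchor-drug dose plus five library-drug doses (not always all listed) in √10 steps. Relative viability is the nuclei count in treated wells divided by that in vehicle wells, and each value is the median of duplicate plates.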

[2] = test system: NCI-H460
How it was run: as §1

[3] = test system: NCI-H520
How it was run: as §1

[4] = test system: NCI-H522
How it was run: as §1

[5] = test system: NCI-H596
How it was run: as §1

[6] = test system: NCI-H661
How it was run: as §1

[7] = test system: NCI-H727
How it was run: as §1

[8] = test system: PC-14
How it was run: as §1

[9] = test system: RERF-LC-KJ
How it was run: as §1

[10] = test system: SK-MES-1
How it was run: as §1

[11] = test system: SW 900
How it was run: as §1

In the case of O=c1cc(N2CCOCC2)oc2c(-c3cccc4c3sc3ccccc34)cccc12 + O=C(c1cc(Cc2n[nH]c(=O)c3ccccc23)ccc1F)N1CCN(C(=O)C2CC2)CC1 [Olaparib] (partner 8 µM), the relative viability ([1]; first compound 0.3162 µM) is reported as 0.631, the relative viability ([1]; first compound 1 µM) is reported as 0.585 and the relative viability ([2]; first compound 0.01 µM) is reported as 0.452. For the same molecule, the relative viability ([2]; first compound 0.03162 µM) was 0.37, the relative viability ([2]; first compound 0.1 µM) was 0.452 and the relative viability ([2]; first compound 0.3162 µM) was 0.403. The relative viability ([2]; first compound 1 µM) was 0.406, the relative viability ([3]; first compound 0.01 µM) was 0.42 and the relative viability ([3]; first compound 0.03162 µM) was 0.406. For the same molecule, the relative viability ([3]; first compound 0.1 µM) was 0.366, the relative viability ([3]; first compound 0.3162 µM) was 0.351 and the relative viability ([3]; first compound 1 µM) was 0.338. It also gave a relative viability ([4]; first compound 0.01 µM) of 0.59, a relative viability ([4]; first compound 0.03162 µM) of 0.696 and a relative viability ([4]; first compound 0.1 µM) of 0.739. For the same molecule, the relative viability ([4]; first compound 0.3162 µM) was 0.602, the relative viability ([4]; first compound 1 µM) was 0.572 and the relative viability ([5]; first compound 0.01 µM) was 0.675. For the same molecule, the relative viability ([5]; first compound 0.03162 µM) was 0.628, the relative viability ([5]; first compound 0.1 µM) was 0.735 and the relative viability ([5]; first compound 0.3162 µM) was 0.683. It also gave a relative viability ([5]; first compound 1 µM) of 0.694, a relative viability ([6]; first compound 0.01 µM) of 0.744 and a relative viability ([6]; first compound 0.03162 µM) of 0.725. The relative viability ([6]; first compound 0.1 µM) was 0.709, the relative viability ([6]; first compound 0.3162 µM) was 0.732 and the relative viability ([6]; first compound 1 µM) was 0.721. It also gave a relative viability ([7]; first compound 0.01 µM) of 0.692, a relative viability ([7]; first compound 0.03162 µM) of 0.618 and a relative viability ([7]; first compound 0.1 µM) of 0.679. It also gave a relative viability ([7]; first compound 0.3162 µM) of 0.711, a relative viability ([7]; first compound 1 µM) of 0.684 and a relative viability ([8]; first compound 0.01 µM) of 0.285. For the same molecule, the relative viability ([8]; first compound 0.03162 µM) was 0.21, the relative viability ([8]; first compound 0.1 µM) was 0.325 and the relative viability ([8]; first compound 0.3162 µM) was 0.282. It also gave a relative viability ([8]; first compound 1 µM) of 0.269, a relative viability ([9]; first compound 0.01 µM) of 1.03 and a relative viability ([9]; first compound 0.03162 µM) of 0.979. The relative viability ([9]; first compound 0.1 µM) was 0.965, the relative viability ([9]; first compound 0.3162 µM) was 0.703 and the relative viability ([9]; first compound 1 µM) was 0.893. The relative viability ([10]; first compound 0.01 µM) was 0.68, the relative viability ([10]; first compound 0.03162 µM) was 0.71 and the relative viability ([10]; first compound 0.1 µM) was 0.808. It also gave a relative viability ([10]; first compound 0.3162 µM) of 0.598, a relative viability ([10]; first compound 1 µM) of 0.634 and a relative viability ([11]; first compound 0.03162 µM) of 0.918. It also gave a relative viability ([11]; first compound 0.1 µM) of 0.794, a relative viability ([11]; first compound 0.3162 µM) of 0.719 and a relative viability ([11]; first compound 1 µM) of 0.572.
